“Also recorded” adds a separate entry of the source.

The results in this text go back to patent US12410237B2, “Methods for purifying proteins having a tubulin carboxypeptidase activity and peptidic based inhibitors thereof” (CENTRE NATIONAL DE LA RECHERCHE SCIENTIFIQUE, priority 2017, dated 2025).

Assay [1] relates to native TCPase activity in brain MAPs. Nature of the assay: detyrosination assay with 3H-tyrosine labelled microtubules and isolated brain MAPs. It is filed as biochemical, pig. Particulars: for inhibition of native TCPase activity in brain MAPs (in words): protease inhibitor treatment of brain MAPs, FIG. 5; for inhibition of TCP activity in the MAPs fraction by peptides (in words): brain-derived MAPs, FIG. 11A. As to the method: An assay involving radioactively labelled tyrosine (^3H—Y) was used to quantitatively determine the TCPase activity. Brain tubulin was isolated and purified and radioactively labelled with *Y by recombinant TTL. To do so, recombinant bacterially expressed purified TTL (>90% purity) was put in contact with micrograms of pig brain purified tubulin. The reaction sample was incubated for one hour at 37° C. in presence of radioactively labelled ^3H—Y and ATP. Following incorporation of ^3H—Y to tubulin, a polymerization cycle was performed by adding GTP and incubating for 30 min at 37° C. Next the samples are centrifuged and the obtained pellet was washed twice with PEM buffer. The resulting radioactively labelled MTs were store at −80° C. until further testing. […] After obtaining both purified recombinant TCPase candidate and radioactively labelled MTs, the proteins were put into contact and various amounts of TCPase were presented to MTs. Removal of the radioactive tyrosine by the candidate detyrosinase was measured by quantification of radioactivity in both the soluble and insoluble fraction of the reaction using a liquid scintillator counter.
To further gain insights in the potential protease that could embody the TCPase activity, the isolated MAPs from crude brain extracts were exposed to a selection of specific Cysteine, Aspartic, Metallo and Serine proteinase inhibitors were tested on the extract.
Recombinant bacterially expressed purified TTL (>90% purity) was put in contact with micrograms of pig brain purified tubulin. The reaction sample was incubated for one hour at 37° C. in presence of radioactively labeled ^3H—Y and ATP. Following incorporation of ^3H—Y to tubulin, a polymerization cycle was performed by adding GTP and incubating for 30 min at 37° C. Next, the samples were centrifuged and the obtained pellet was washed twice with PEM buffer. The resulting radioactively labeled MTs were store at −80° C. until further testing. The isolated MAPs from crude brain extracts (as obtained in example 1) were contacted to the radioactively labeled MTs in absence or presence of different peptidic inhibitors or an increasing concentration of peptidic inhibitor. Release of radioactive tyrosine by native TCPase containing brain MAPs was measured by quantification of radioactivity in both the soluble and insoluble fraction of the reaction using a liquid scintillator counter.

For another assay, the system named is C2C12 cells. Nature of the assay: C2C12 myogenic differentiation, immunoblot of tubulin detyrosination and acetylation. Particulars: C2C12 myogenic differentiation time-course, FIG. 12. It is filed as cell-based, mouse. As to the method: C2C12 cells is an immortal cell line of mouse skeletal myoblasts originally derived from satellite cells from the thigh muscle cells. C2C12 cells were routinely grown at 37° C. in a CO2 incubator. Myogenic differentiation is initiated upon reaching confluence by switching the cells to medium containing 2% horse serum. Cells were collected at start of the myogenic differentiation and every two days over a period of 6 days for molecular analysis.
To further study the use of a TCPase inhibitor, C2C12 cells were treated with or without EEY peptide (FIG. 12). The protein expression of Myosin was monitored by western blotting as control for muscle differentiation. Vinculin acts as loading control. Acetylation and detyrosination of the microtubules was assessed. Whereas acetylation increases during differentiation (Ac-Tubulin) no difference in the status could be observed in the treated cells.
A general note: Immunoblotting shows a protein as a band on a membrane.

Take `NC(=O)CI` [Iodoacetamide, reference compound]: the “inhibition of native TCPase activity in brain MAPs (in words)” value in assay [1] was “complete inhibition”.

With “EEY: tripeptide EEY inspired by the C-terminal sequence of alpha-tubulin, TCP inhibitor”, in assay [1], the “inhibition of TCP activity in the MAPs fraction by peptides (in words)” value is given as “almost fully inhibited”. In addition, in the assay with C2C12 cells, the “acetylation of the microtubules (Ac-Tubulin)” value was “no difference” and the “tubulin detyrosination levels (Δ1-tubulin)” value was “clearly inhibited detyrosination; also recorded: decrease”.

As for “EDY: three amino acid peptide EDY inspired by the C-terminal sequence of tubulin”, in assay [1], the “inhibition of TCP activity in the MAPs fraction by peptides (in words)” value is on record as “partially blocked”.

For the molecule `CC(C)C[C@H](NC(=O)[C@H]1O[C@@H]1C(=O)O)C(=O)NCCCCN=C(N)N` [E64, reference compound], in assay [1], the “inhibition of native TCPase activity in brain MAPs (in words)” value is “complete inhibition”.
